# ChEMBL document CHEMBL3867446, “Sulfoureido Lipopeptides from the Marine Sponge Discodermia kiiensis” (J Nat Prod, 2016)
# pIC50: −log10 of the molar value.
# Assay: Cytotoxicity against mouse P388 cells after 3 days by MTT assay
# Format: functional, cell-based
# Conditions: P388, 72 h
row,SMILES,pIC50
1,CC/C=C1/NC(=O)/C=C/[C@H](C(C)C)OC(=O)C(C)(C)[C@H](C[C@H](/C=C/C=C/C/C=C\CCCC)OC)OC(=O)CNC(=O)[C@H](CNC(N)=O)NC(=O)CNC(=O)[C@@H](CCCNC(=O)NS(=O)(=O)O)NC1=O,4.52
2,CC/C=C1/NC(=O)/C=C/[C@H](C(C)C)OC(=O)C(C)(C)[C@H](C[C@H](/C=C/C=C/C/C=C\CCC(C)C)OC)OC(=O)CNC(=O)[C@H](CNC(N)=O)NC(=O)CNC(=O)[C@@H](CCCNC(=O)NS(=O)(=O)O)NC1=O,4.82
3,CC/C=C1/NC(=O)/C=C/[C@H]([C@@H](C)CC)OC(=O)C(C)(C)[C@H](C[C@H](/C=C/C=C/C/C=C\CCC(C)C)OC)OC(=O)CNC(=O)[C@H](CNC(N)=O)NC(=O)CNC(=O)[C@@H](CCCNC(=O)NS(=O)(=O)O)NC1=O,4.54
4,CC/C=C1/NC(=O)/C=C/[C@H](C(C)C)OC(=O)C(C)(C)[C@H](C[C@H](/C=C/C=C/C/C=C\CCC(C)C)OC)OC(=O)CNC(=O)[C@H](CNC(N)=O)NC(=O)CNC(=O)[C@@H](CCCNC(N)=O)NC1=O,4.44
